Test results published in patent US20120302618A1, “USE OF BENZYDAMINE IN THE TREATMENT OF P40-DEPENDENT DISEASES” (AZIENDE CHIM. RIUN. ANG. FRANC. A.C.R.A.F. S.p.A., priority 2009, published 2012).
“And” between values parts separate entries of the source, which are not always exact repeats. Equal values may be shown once.

Tests used:
[1] = system: p40; assay: Inhibition of p40 mRNA expression by LPS-stimulated MonoMac6 cells (real-time PCR); format: cell-based, human; conditions: 75 μM, 1 h preincubation, LPS 100 ng/ml for 4 h
Description: The capacity of benzydamine to inhibit the expression of p40 by lipopolysaccharide (LPS)-stimulated MonoMac6 cells was evaluated. The cells were placed in 96-well plates at a concentration of 50 000 cells/well. The compound was tested at the concentration of 75 μM and incubated for 1 hour. The cells were then stimulated with LPS (100 ng/ml) for 4 hours. The total RNA was extracted from the cell pellet using the RNeasy mini kit (Qiagen), reverse-transcribed with the TaqMan Reverse transcription reagents synthesis kit (Applied Biosystems) and the cDNA obtained was used for the real-time PCR reaction. The amplification was obtained in 96-well plates using the ABI Prism 7000 sequence detection system (Applied Biosystems), by applying the following temperature profile: 50° C. for 2 minutes, 95° C. for 10 minutes and 45 cycles at 95° C. for 15 seconds and 60° C. for 1 minute. For the amplification, a set of primers and probe specific for human p40 was used (Applied Biosystems, RefSeq NM_002187.2). A set of primers and probe for β-actin was used in separate wells as an internal control of the samples for the purposes of normalization. Once the reaction had taken place, the fluorescence data were analysed using the ABI Prism 7000 SDS software, by calculating the threshold cycle (Ct) for each sample and subsequently performing a relative quantification via the ΔΔCt method.

[2] = system: p40; assay: Inhibition of p40 protein production by anti-CD3 stimulated human PBMCs (Luminex); format: cell-based
Description: (§1) The capacity of the compound to inhibit the production of the protein p40 by anti-CD3 stimulated human PBMCs (peripheral blood mononuclear cells) was evaluated. The cells were placed in 96-well plates at a concentration of 2×10^5 cells/well. The compound was tested on a 6-point ½-log dose curve (in the range 0.3-100 μM) and incubated for 1 hour. The cells were then stimulated with anti-CD3 (4 μg/ml) for 48 hours. The amount of p40 produced was measured in the supernatants, suitably diluted with buffer, by using the Luminex 100 system.

[3] = system: TNF; assay: Inhibition of TNF production by anti-CD3 stimulated human PBMCs (Luminex); format: cell-based
Description: as §1, with “expression” for “production”, “TNF” for “p40”

[4] = system: TNF; conditions: mice; cited from earlier work
[5] = 0 μM (so in the source), anti-CD3 4 μg/ml 48 h, human PBMCs
[6] = PBMC, 1 μM, anti-CD3 4 μg/ml 48 h, human PBMCs
[7] = PBMC, 3 μM, anti-CD3 4 μg/ml 48 h, human PBMCs
[8] = PBMC, 10 μM, anti-CD3 4 μg/ml 48 h, human PBMCs
[9] = PBMC, 30 μM, anti-CD3 4 μg/ml 48 h, human PBMCs
[10] = PBMC, 100 μM, anti-CD3 4 μg/ml 48 h, human PBMCs
[11] = PBMC, anti-CD3 stimulated human PBMCs, 48 h
[12] = dose curve 0.3-100 μM, human PBMCs

IC50 [2, 11]: 10.1 µM
IC50 [3, 11]: 43.1 µM
IC50 for TNF relative to IC50 for p40 ([3]; anti-CD3 stimulated human PBMCs): about 4 fold
Structure (SMILES): CN(C)CCCOc1nn(Cc2ccccc2)c2ccccc12 [Benzydamine]
% inhibition of LPS-induced p40 mRNA expression [1]: 80%
% inhibition of p40 production [2, 5]: 0%
inhibition at 1 µM [2, 6]: 23%
inhibition at 3 µM [2, 7]: 24%
inhibition at 10 µM [2, 8]: 44%
inhibition at 30 µM [2, 9]: 97%
inhibition at 100 µM [2, 10]: 99%
inhibition of anti-CD3 induced p40 production, range over dose curve [2, 12]: 23-99%
% inhibition of TNF production [3, 5]: 7%
inhibition at 1 µM [3, 6]: 8%
inhibition at 3 µM [3, 7]: 12%
inhibition at 10 µM [3, 8]: 22%
inhibition at 30 µM [3, 9]: 44%
inhibition at 100 µM [3, 10]: 70%
inhibition of anti-CD3 induced TNF production, range over dose curve [3, 12]: 8-70%
dose required for a significant inhibiting effect on TNF production [4]: 20 mg/kg and 40 mg/kg
